Here are results for seven compounds from US5037837A, “Phenoxypropylamine derivatives or salts thereof and antiulcer agents containing the same” (Terumo Kabushiki Kaisha, priority 1989, dated 1991).

The subject of experiment [1] is ethanol hydrochloric acid ulcer. The experiment is described as follows: Inhibitory activity against ethanol hydrochloric acid ulcer. As to conditions: SD male rats, 30 mg/kg orally, 1 hour before 150 mM HCl in 60% ethanol. In kind it is in vivo. The method, then:
To SD male rats (weighing 150-250 g) fasted for 24 hours was administered orally a phenol derivative of the invention at a dose of 30 mg/kg bodyweight. One hour later, a hydrochloric acid solution in ethanol (containing 150 mM hydrochloric acid in 60% ethanol) was orally given in a volume of 0.5 ml/100 g bodyweight.
One hour later, the animals were sacrificed with ether. The stomach was excised and, after formalin treatment, measured for the length (mm) of lesions developed in glandular portions of the stomach. Total length of the lesions per animal was taken as ulcer index.
Percent inhibition of ulceration as referred to in the table is a value obtained by reducing from 1 the ulcer index for the rat with a phenol derivative of the invention orally given divided by the ulcer index for the orally nonadministered rat and multiplying the value by 100. The calculation is conducted by the formula shown below. [formula]

The target of the next experiment is T1, 5-lipoxygenase (Rattus norvegicus, UniProt P12527).
T1 construct: The supernatant is employed as an enzyme solution of a 5-lipoxygenase; endogenous in cells; host or cells: RBL-1 rat basophilic leukemia cells (supernatant of sonicated cells)
T1 sequence (P12527 1-673): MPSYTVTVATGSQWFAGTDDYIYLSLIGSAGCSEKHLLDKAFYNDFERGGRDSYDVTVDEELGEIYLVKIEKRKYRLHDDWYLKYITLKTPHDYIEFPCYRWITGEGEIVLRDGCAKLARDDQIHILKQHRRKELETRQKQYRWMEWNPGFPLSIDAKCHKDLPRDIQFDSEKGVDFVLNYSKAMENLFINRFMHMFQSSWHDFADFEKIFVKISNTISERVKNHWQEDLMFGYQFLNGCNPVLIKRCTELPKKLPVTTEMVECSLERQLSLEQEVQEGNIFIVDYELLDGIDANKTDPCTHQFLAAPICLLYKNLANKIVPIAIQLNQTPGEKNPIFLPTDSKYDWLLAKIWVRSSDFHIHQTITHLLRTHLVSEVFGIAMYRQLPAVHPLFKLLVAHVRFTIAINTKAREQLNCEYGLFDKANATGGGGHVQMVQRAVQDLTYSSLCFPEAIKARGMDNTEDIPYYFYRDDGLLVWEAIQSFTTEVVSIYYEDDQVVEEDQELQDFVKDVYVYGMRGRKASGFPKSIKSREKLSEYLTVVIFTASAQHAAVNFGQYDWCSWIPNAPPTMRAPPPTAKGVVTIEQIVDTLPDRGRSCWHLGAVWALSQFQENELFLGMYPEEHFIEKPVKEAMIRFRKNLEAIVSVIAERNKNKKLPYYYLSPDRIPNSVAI
The experiment is described as follows: 5-Lipoxygenase-inhibiting activity. The class given is biochemical. The conditions noted are these: RBL-1 cell supernatant; arachidonic acid 50 μg; 37° C., 15 min; 5-HETE by HPLC; read-out: 5-Lipoxygenase inhibiting activity, 50% Inhibition conc. The method, then:
A suspension of rat-origin basophilic leukemia cell strain RBL-1 in an Eagle basal medium (manufactured by Gibco Laboratories) containing 10% FCS is cultivated in a 5% CO2 incubator at 37° C. The culture is then centrifuged at 4° C. to collect cells. The cells are re-suspended in a phosphate buffer solution at pH 7.4 to a cell density of 1.0×10^7 -3.0×10^7 cells/ml. The suspended cells are treated by an ultrasonic cell blender and then centrifuged at 15,000 rpm at 4° C. for 30 min. The supernatant is employed as an enzyme solution of a 5-lipoxygenase. In test tubes are placed 50 μg of arachidonic acid and a phenol derivative of the invention to be tested. To each of the test tubes are added 0.30 ml of phosphate buffer, 0.20 ml of the enzyme solution as prepared above and 5 μl of a 100 mM CaCl2 (calcium chloride) solution. The mixture is allowed to react at 37° C. for 15 min. To the reaction mixture, after ice-cooling, is added one drop of 1N HCl (hydrochloric acid), and the resulting mass is extracted with 2 ml of ethyl acetate. The extract is concentrated to dryness followed by the addition of 100 μl of methanol for use as a test specimen.
Said specimen is injected into octadecylsilane (ODS) reverse phase high performance liquid chromatography (HPLC), eluted with methanol - acetonitrile - water - acetic acid (15:45:35:0.01). Peak for 5-HETE (5-(s)-hydroxy-6,8,11,14-eicosatetraenoic acid), a 5-lipoxygenase product detected in approximately 25 min. is measured. The 5-lipoxygenase-inhibiting activity is determined by decrease in the peak for said 5-lipoxygenase product.
50% inhibitory concentration as referred to in the table means concentration of a phenol derivative required for controlling the production of […] as described above to 50% by introducing said phenol derivative when production of 5-HETE without phenol derivative of the invention is taken as 100%.

Another experiment deals with T2, histamine H2 receptors (Cavia porcellus, UniProt P47747).
T2 construct: Excised right atrium of Hartley male guinea pigs; from tissue; host or cells: isolated right atrium of male Hartley guinea pigs
T2 sequence (P47747 whole entry): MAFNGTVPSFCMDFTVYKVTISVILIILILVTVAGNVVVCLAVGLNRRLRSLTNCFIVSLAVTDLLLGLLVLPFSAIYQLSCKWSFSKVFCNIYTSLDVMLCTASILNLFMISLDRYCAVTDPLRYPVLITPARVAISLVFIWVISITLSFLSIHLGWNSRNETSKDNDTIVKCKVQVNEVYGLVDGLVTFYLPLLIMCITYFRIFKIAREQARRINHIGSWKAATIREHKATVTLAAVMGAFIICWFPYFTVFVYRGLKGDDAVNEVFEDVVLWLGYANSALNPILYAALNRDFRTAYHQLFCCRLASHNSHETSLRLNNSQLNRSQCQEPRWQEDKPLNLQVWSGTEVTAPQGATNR
The experiment is described as follows: Antagonistic action against histamine H2 receptors (isolated right atrium). The arrangement: species or system Hartley male guinea pigs. The conditions noted are these: guinea pig isolated right atrium, 30° C.; concentration for two-fold shift of the histamine dose-response curve; read-out: Antagonistic action against histamine H2 receptors, pA2 (converted). The method, then:
Excised right atrium of Hartley male guinea pigs (weighing 450-550 g) was used. Thus, the guinea pig was fainted by strongly hitting the occipital region, and then the chest opened to isolate the heart. The isolated heart was immersed in a Krebs-Henseleit nutrient solution at 30° C. which had sufficiently been aerated with 95% O2 +5% CO2. The right atrium with the right cardiac auricle attached thereto was separated carefully enough to avoid damages. Blood vessels and tissues attached around the separated organ were removed. Both ends of the separated right cardiac auricle were held with threaded Serfin, and the thread at one end was fixed in a tissue tank filled with the nutrient solution, and the thread at the other end connected to a tension measuring and recording instrument and loaded with 1-g weight. The nutrient solution in the tissue tank was maintained at a temperature of 30° C. and consistently aerated with a 95% O2 +5% CO2 gas. The nutrient solution was exchanged every 5-10 min.
After spontaneous contractions of the isolated right atrium specimen were stabilized, and the heart rate became constant, histamine was cumulatively introduced into the tissue tank. Thus, histamine was introduced cumulatively starting at 10^-7 M and gradually at 3×10^-7 M, 10^-6 M, […], and so on. When the heart rate became constant at a given concentration, the concentration was further increased, and the cumulative introduction of histamine was continued until the heart rate no more increased. There was then determined a histamine dose-response curve.
Antagonistic action of the phenol derivatives of the invention against histamine H2 receptors was tested using the isolated right atrium specimen previously employed for determining a histamine dose-response curve. Thus, said specimen with the increased heart rate by the cumulative introduction of histamine was repeatedly washed with a nutrient solution to remove the histamine. When the heart rate was decreased by the histamine removal to a constant level, a phenol derivative of the invention was introduced into the tissue tank. After the introduction of said phenol derivative, histamine was cumulatively introduced sufficiently to determine a histamine dose-response curve in the presence of said phenol derivative. Antagonistic action of the phenol derivatives of the invention is determined by measuring the distance (mm) at 50% reaction between the dose-response curve in the absence of said phenol derivative and one in the presence of said phenol derivative and calculating pA2 on the basis of the distance from the Van Rossum simplified table.
Note that the pA2 in the table means a -log value of the concentration of a phenol derivative of the invention necessary for parallel displacement of the histamine dose-response curve to the side of a twice increase in concentration.

With `O=C(CCCCc1ccc(O)c(O)c1)NCCCOc1cccc(CN2CCCCC2)c1` [Example 7, N-[3-(3-(1piperidinylmethyl)phenoxy)propyl]-5-(3,4dihydroxyphenyl)pentylamide], the “Inhibitory activity against ethanol hydrochloric acid ulcer, Percent inhibition of ulceration” value in experiment [1] amounted to 83.7%. The IC50 on 5-lipoxygenase is 5.9 µM. In addition, the Kb on histamine H2 receptors was 0.141 µM.

As for `COc1cc(CCCCC(=O)NCCCOc2cccc(CN3CCCCC3)c2)cc(OC)c1O` [Example 4, N-[3-(3-(1-piperidinylmethyl)phenoxy)propyl]-5-(4-hydroxy-3,5-dimethoxyphenyl)pentylamide], the “Inhibitory activity against ethanol hydrochloric acid ulcer, Percent inhibition of ulceration” value in experiment [1] was determined as 62.5%. Also, the IC50 at 5-lipoxygenase was determined as 13 µM. Besides, on histamine H2 receptors, the Kb was 0.49 µM.

Take `O=C(CCCCc1ccc(O)cc1)NCCCOc1cccc(CN2CCCCC2)c1` [Example 2, N-[3-(3-(1piperidinylmethyl)phenoxy)propyl]-5-(4-hydroxyphenyl)-pentylamide]: in experiment [1], the “Inhibitory activity against ethanol hydrochloric acid ulcer, Percent inhibition of ulceration” value came to 33.4%. For the same compound, the IC50 at 5-lipoxygenase stood at 120 µM. Besides, the Kb on histamine H2 receptors is 0.316 µM.

On to `COc1cc(CCC(=O)NCCCOc2cccc(CN3CCCCC3)c2)ccc1O` [Example 5, N-[3-(3-(1-piperidinylmethyl)phenoxy)propyl]-3-(4-hydroxy-3-methoxyphenyl)propylamide], for which the “Inhibitory activity against ethanol hydrochloric acid ulcer, Percent inhibition of ulceration” value in experiment [1] was found to be 48.0%. Further, at 5-lipoxygenase, the IC50 amounted to 32 µM. Also, the Kb on histamine H2 receptors was 0.631 µM.

In the case of `COc1cc(CCCCC(=O)NCCCOc2cccc(CN3CCCCC3)c2)ccc1O` [Example 1, N-[3-(3(1-piperidinylmethyl)phenoxy)propyl]-5-(4-hydroxy-3methoxyphenyl)pentylamide], the “Inhibitory activity against ethanol hydrochloric acid ulcer, Percent inhibition of ulceration” value in experiment [1] amounted to 89.5%. The IC50 on 5-lipoxygenase stood at 6.1 µM. On histamine H2 receptors, the Kb is 0.0575 µM.

As for `COc1cc(CCCC(=O)NCCCOc2cccc(CN3CCCCC3)c2)ccc1O` [Example 6, N-[3-(3-(1-piperidinylmethyl)phenoxy)propyl]-4-(4-hydroxy-3-methoxyphenyl)butylamide], the “Inhibitory activity against ethanol hydrochloric acid ulcer, Percent inhibition of ulceration” value in experiment [1] stood at 76.5%. Moreover, the IC50 at 5-lipoxygenase amounted to 8.9 µM. Further, the Kb on histamine H2 receptors was 0.0501 µM.

`CC(C)(C)c1cc(CCCCC(=O)NCCCOc2cccc(CN3CCCCC3)c2)cc(C(C)(C)C)c1O` [Example 3, N-[3-(3-(1-piperidinylmethyl)phenoxy)propyl]-5-(3,5-di-tert-butyl-4-hydroxyphenyl)pentylamide]: the “Inhibitory activity against ethanol hydrochloric acid ulcer, Percent inhibition of ulceration” value in experiment [1] is 42.9%. Moreover, the IC50 on 5-lipoxygenase amounted to 20 µM. Further, the Kb on histamine H2 receptors was 2.57 µM.
